Square brackets hold non-standard residues; d marks the D form. Peptide text beside a SMILES is read from it. * marks the point of attachment. X1 = O=C(O)CC[C@@H]1NC(=O)[C@H](CCCCN*)NC1=O
What was measured:
[1] = target: μ-receptor (isolated guinea pig ileum, GPI) (Cavia porcellus, UniProt P97266); assay: Peripheral opioid activity: inhibition of electrically-induced contractions of isolated guinea pig ileum (GPI); conditions: for Value of pD2 (M ± m): negative logarithm of EC50; for EC50: read-out: Median EC50 in M, concentration reducing contraction amplitude by 50%, 5 replications
Method: The segment of GPI about 1 cm long was placed into a 10-ml organ bath containing Krebs solution at 34° C. […] Resting tension of the organ was 1 g. The segment of GPI was stimulated by single pulses duration 1 ms with 0.1 Hz at 80 V. The solution with isolated organs was constantly aerated. The contractions were recorded in an isometrical mode by a sensor K 30 (Hugo Sachs Elektronic KG) with paper register Rikadenki-series (Japan).
The substances tested were dissolved in distilled water and added cumulatively to the organ bath at a volume of 5 to 30 mcl. Each subsequent substance was added after the isolated organs were washed 3 or 4 times for 12-15 min. On the basis of the data obtained, dose-effects curves were plotted and the activity of substances was expressed by IC50 or pD2. The pD2 index was equal to a negative decimal logarithm of the substance concentration causing a 50% of the maximal effect.
New dermorphin analogues were tested in the standard model of Guinea pig ileum binding test.
For confirmation of opioid activity, the specific antagonist naloxson was used in concentration of 10^−5M. Each molecule was tested in 5 independent replications and relative activity was calculated as negative logarithm of EC50 (pD2).

BALB/c male mice = assay: Antinociceptive activity, tail flick test with heat radiation, intragastral or intraperitoneal; format: in vivo; conditions: for Effect duration: 15 min, cut-off 6 sec
Method: For estimation of oral activity of novel cyclopeptides of the present invention, the “tail flick” test was used. The results were compared with those obtained using intraperitoneal administration.
Antinociceptive activity of the peptides of the present invention was assessed in experiments on BALB/c male mice weighing 22 to 24 g. The peptides were dissolved in saline and administered intraperitoneally or intragastrally.
The “Tail flick” test (D'Amour, F. E. et al. “A Method for Determining Loss of Pain Sensation”, J. Pharmacol. Exp. Ther., Vol. 72, Pages 74 to 79, 1941) was performed on an analgesimeter type 812, Hugo Sachs Electronick KG. Antinociceptive activity was defined as the absence of tail flick response on stimulation with a focused bundle of heat radiation with 6 sec at baseline response of 2.0-3.0 seconds.
Statistical treatment of the results was carried out by the Student's paired t-test.

mice F1(CBAxC57D16) = assay: Analgesic activity, tail flick test, water 48° C., intraperitoneal; format: in vivo; conditions: Table 10; for Initial sensitivity level: before injection
Method: Two hundred and twenty mice F1(CBAxC57D16) first generation hybrids were used for testing of analgesic activity using the “tail flick” test. The water temperature was at 48° C. The maximal effect was for the period of 30 seconds. All peptides were injected intraperitoneally in the doses of 5, 10 or 20 mg/kg. Analgesic effect was estimated in the time interval of 15 to 120 min after peptide injection. Student's t-criterion was used for statistical calculations of the results. Statistical significance were at the level of p≦0.05.

[2] = Table 11, oral 50 mg/kg group, before administration

Sequence of μ-receptor (isolated guinea pig ileum, GPI) (P97266 whole entry): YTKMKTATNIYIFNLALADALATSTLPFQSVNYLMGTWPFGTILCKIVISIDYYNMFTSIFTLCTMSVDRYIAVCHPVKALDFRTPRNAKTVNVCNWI

## CC(C)C[C@H](NC(=O)[C@H](Cc1ccccc1)NC(=O)CNC(=O)[C@@H](C)NC(=O)[C@@H](N)Cc1ccc(O)cc1)C(=O)N[C@@H](CCCNC(=N)N)C(=O)O [Compound 56, H-Tyr-D-Ala-Gly-Phe-Leu-Arg-OH] (H-Y[dA]GFLR-OH)
[1]
  Value of pD2 (M ± m): 7.53 ± 0.22
  EC50: 0.05 µM

## C[C@@H](NC(=O)[C@H](Cc1ccccc1)NC(=O)[C@@H](C)NC(=O)[C@@H](N)Cc1ccc(O)cc1)C(=O)NCCCC[C@@H]1NC(=O)[C@H](CCC(=O)O)NC1=O [Compound 44, Cyclo-[L-Lys(H-Tyr-D-Ala-Phe-D-Ala)-L-Glu(OH)]] (H-Y[dA]F[dA]-X1)
[1]
  Value of pD2 (M ± m): 6.15 ± 0.10
  EC50: 0.57 µM

## C[C@@H](NC(=O)[C@H](Cc1ccccc1)NC(=O)[C@@H](C)NC(=O)[C@@H](N)Cc1ccc(O)cc1)C(=O)N[C@@H](Cc1ccc(O)cc1)C(=O)N1CCC[C@H]1C(=O)N[C@@H](CO)C(N)=O [Compound 49, H-Tyr-D-Ala-Phe-D-Ala-Tyr-Pro-Ser-NH2] (H-Y[dA]F[dA]YPS-NH2)
[1]
  Value of pD2 (M ± m): 7.55 ± 0.11
  EC50: 0.03 µM

## COc1cccc(C2(O)CCCCC2CN(C)C)c1 (centres unmarked) [Tramadol]
BALB/c male mice; [2]
  Initial sensitivity level, mean: 2.6 ± 0.1 s
BALB/c male mice; Table 11, oral 50 mg/kg
  Effect duration: 2.6 ± 0.1 s

## COC(=O)[C@H](Cc1c[nH]c2ccccc12)NC(=O)CC[C@@H]1NC(=O)[C@H](CCCCNC(=O)[C@@H](C)NC(=O)[C@H](Cc2ccccc2)NC(=O)[C@@H](C)NC(=O)[C@@H](N)Cc2ccc(O)cc2)NC1=O [Compound 45, Cyclo-[L-Lys(H-Tyr-D-Ala-Phe-D-Ala)-L-Glu(L-Trp-OMe)]]
[1]
  Value of pD2 (M ± m): 5.68 ± 0.09
  EC50: 2 µM

## Cyclo-[L-Lys(H-Tyr-D-Ala-Phe-D-Ala-Tyr-Pro-Ser)-L-Glu(L-Trp-NH2)]
BALB/c male mice; [2]
  Initial sensitivity level, mean: 2.7 ± 0.1 s
BALB/c male mice; Table 12, intraperitoneal 10 mg/kg group, before injection
  Initial sensitivity level, mean: 2.1 ± 0.1 s
BALB/c male mice; Table 12, intraperitoneal 10 mg/kg
  Effect duration: 3.9 ± 0.8 s
Mice F1(CBAxC57D16); 10 mg/kg group
  Initial sensitivity level: 3.2 ± 0.3 s
Mice F1(CBAxC57D16); 10 mg/kg i.p., 15 min
  Effect duration: 11.6 ± 1.7 s
Mice F1(CBAxC57D16); 10 mg/kg i.p., 30 min
  Effect duration: 15.5 ± 1.6 s
Mice F1(CBAxC57D16); 10 mg/kg i.p., 45 min
  Effect duration: 15.7 ± 1.2 s
Mice F1(CBAxC57D16); 10 mg/kg i.p., 60 min
  Effect duration: 13.0 ± 1.5 s
Mice F1(CBAxC57D16); 10 mg/kg i.p., 90 min
  Effect duration: 9.9 ± 1.5 s
Mice F1(CBAxC57D16); 10 mg/kg i.p., 120 min
  Effect duration: 6.8 ± 0.5 s
Mice F1(CBAxC57D16); 20 mg/kg group
  Initial sensitivity level: 3.0 ± 0.2 s
Mice F1(CBAxC57D16); 20 mg/kg i.p., 15 min
  Effect duration: 1.4 ± 1.6 s
Mice F1(CBAxC57D16); 20 mg/kg i.p., 30 min
  Effect duration: 18.1 ± 2.3 s
Mice F1(CBAxC57D16); 20 mg/kg i.p., 45 min
  Effect duration: 16.8 ± 2.2 s
Mice F1(CBAxC57D16); 20 mg/kg i.p., 60 min
  Effect duration: 12.7 ± 1.8 s
Mice F1(CBAxC57D16); 20 mg/kg i.p., 90 min
  Effect duration: 11.7 ± 1.2 s
Mice F1(CBAxC57D16); 20 mg/kg i.p., 120 min
  Effect duration: 6.3 ± 0.6 s

## C[C@@H](NC(=O)[C@H](Cc1ccccc1)NC(=O)[C@@H](C)NC(=O)[C@@H](N)Cc1ccc(O)cc1)C(=O)N[C@@H](Cc1ccc(O)cc1)C(=O)N1CCC[C@H]1C(=O)N[C@@H](CO)C(=O)NCCCC[C@@H]1NC(=O)[C@H](CCC(=O)N[C@@H](Cc2c[nH]c3ccccc23)C(N)=O)NC1=O [Compound 46, Cyclo-[L-Lys(H-Tyr-D-Ala-Phe-D-Ala-Tyr-Pro-Ser)-L-Glu(L-Trp-NH2)]]
[1]
  Value of pD2 (M ± m): 7.96 ± 0.02
  EC50: 0.011 µM

Source: patent US8637521B2, “Substituted piperazin-2,5-diones and their use as multifunctional bioactive compounds” (priority 2006, dated 2014)
